The target of assay [1] is T1, hCOX-2 in HNSCC 1483 cells (Homo sapiens, UniProt P35354).
T1 sequence (P35354 18-604): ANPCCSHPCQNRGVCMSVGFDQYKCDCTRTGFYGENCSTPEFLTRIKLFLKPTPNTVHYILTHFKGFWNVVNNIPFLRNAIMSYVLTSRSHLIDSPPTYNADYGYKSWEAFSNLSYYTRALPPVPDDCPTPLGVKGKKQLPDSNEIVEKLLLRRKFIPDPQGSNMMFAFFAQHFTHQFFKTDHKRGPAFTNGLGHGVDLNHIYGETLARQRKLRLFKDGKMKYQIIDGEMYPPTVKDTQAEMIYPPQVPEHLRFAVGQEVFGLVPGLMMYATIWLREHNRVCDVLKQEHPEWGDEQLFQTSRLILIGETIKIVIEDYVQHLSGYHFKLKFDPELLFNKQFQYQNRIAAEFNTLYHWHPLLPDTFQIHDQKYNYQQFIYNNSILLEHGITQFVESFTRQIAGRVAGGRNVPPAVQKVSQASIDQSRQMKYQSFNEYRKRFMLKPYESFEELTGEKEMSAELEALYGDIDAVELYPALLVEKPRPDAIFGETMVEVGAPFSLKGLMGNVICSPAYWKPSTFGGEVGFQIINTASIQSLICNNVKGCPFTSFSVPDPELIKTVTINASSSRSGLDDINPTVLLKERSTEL
The class given is cell-based. The note with it: at 5 μM.

Assay [2] has as its system peroxisome proliferator-activated receptor (PPAR)γ. The following applies: cell culture; cited from earlier work.
The next assay deals with T2, murine COX-2 (Mus musculus, UniProt Q05769).
T2 sequence (Q05769 18-604): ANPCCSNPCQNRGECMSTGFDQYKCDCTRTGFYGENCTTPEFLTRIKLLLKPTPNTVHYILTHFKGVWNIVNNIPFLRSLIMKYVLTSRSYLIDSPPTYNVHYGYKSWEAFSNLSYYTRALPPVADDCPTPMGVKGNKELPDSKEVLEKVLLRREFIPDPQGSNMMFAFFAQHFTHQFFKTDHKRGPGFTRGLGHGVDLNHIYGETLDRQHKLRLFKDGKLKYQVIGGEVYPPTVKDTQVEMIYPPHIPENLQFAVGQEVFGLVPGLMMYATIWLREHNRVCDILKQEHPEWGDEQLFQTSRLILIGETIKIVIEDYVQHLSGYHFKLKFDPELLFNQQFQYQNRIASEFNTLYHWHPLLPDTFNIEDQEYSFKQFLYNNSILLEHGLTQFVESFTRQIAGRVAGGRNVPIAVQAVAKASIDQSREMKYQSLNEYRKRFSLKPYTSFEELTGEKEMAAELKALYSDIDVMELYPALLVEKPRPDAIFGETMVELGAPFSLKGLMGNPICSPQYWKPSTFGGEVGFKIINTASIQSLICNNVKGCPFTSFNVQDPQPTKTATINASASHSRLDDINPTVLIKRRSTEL
Put plainly: biochemical. The note with it: COX-2 IC50, purified mCOX-2; 5 μM AA.

The next assay has as its target T3, ovine COX-1 (Ovis aries, UniProt P05979).
T3 sequence (P05979 25-600): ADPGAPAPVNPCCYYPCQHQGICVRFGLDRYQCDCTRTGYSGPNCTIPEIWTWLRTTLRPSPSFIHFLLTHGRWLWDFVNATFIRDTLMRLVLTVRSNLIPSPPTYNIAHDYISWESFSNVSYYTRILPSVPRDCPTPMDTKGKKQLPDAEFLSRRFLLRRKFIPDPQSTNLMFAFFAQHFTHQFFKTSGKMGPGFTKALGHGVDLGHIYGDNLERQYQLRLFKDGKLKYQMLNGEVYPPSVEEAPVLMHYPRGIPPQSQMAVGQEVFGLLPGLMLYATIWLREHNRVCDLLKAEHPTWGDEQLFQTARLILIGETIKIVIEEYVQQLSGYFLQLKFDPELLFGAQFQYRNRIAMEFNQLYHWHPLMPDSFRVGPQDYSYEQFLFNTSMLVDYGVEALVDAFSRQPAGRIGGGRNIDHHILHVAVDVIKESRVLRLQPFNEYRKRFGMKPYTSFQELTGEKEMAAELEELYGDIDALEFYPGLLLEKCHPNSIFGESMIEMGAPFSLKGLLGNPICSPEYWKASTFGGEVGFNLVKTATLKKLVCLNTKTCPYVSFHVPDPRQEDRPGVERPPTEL
The format is biochemical.

As to `CSc1ccc(/C=C2\C=C(CC(=O)O)c3cc(F)ccc32)cc1` [compound 2, (E)-2-(5-fluoro-1-(4-(methylthio)benzylidene)-1H-inden-3-yl)acetic acid], the “inhibition of hCOX-2 in HNSCC 1483 cells (in words)” value in assay [1] is “no inhibition”. Take `O=C(O)CC1=C/C(=C\c2ccc(-c3ccccc3)cc2)c2ccc(F)cc21` [compound 13a]: in assay [1], the “inhibition of hCOX-2 in HNSCC 1483 cells (in words)” value is “no inhibition”. Besides, the “activation of PPARγ (in words)” value in assay [2] is given as “potent activator”. Take `O=C(CC1=C/C(=C\c2ccc(-c3ccccc3)cc2)c2ccc(F)cc21)NS(=O)(=O)C(F)(F)F` [compound 21c, (E)-2-(1-([1,1′-Biphenyl]-4-ylmethylene)-5-fluoro-1H-inden-3-yl)-N-((trifluoromethyl)sulfonyl)-acetamide]: at murine COX-2, the IC50 worked out at 14 µM. Besides, on ovine COX-1, the “improvement in activity against COX-1 as compared with reference compound 2” value is on record as “more than 4 fold”.

(Values after article PMC3297362 (Journal of Medicinal Chemistry, 2012).)
